According to ChEMBL document CHEMBL1144508, “Inhibitory activity of stilbenes on Alzheimer's beta-amyloid fibrils in vitro” (Bioorg Med Chem, 2007):
Calls of active or inactive are those of the source. No cut-off for these calls is given here.

Assays:
[1] = (§1) Antiamyloidogenic activity assessed as inhibition of beta amyloid (25-35) fibril formation after 6 hrs; set-up: species or system Homo sapiens
Homo sapiens = organism: Homo sapiens; assay: as §1

EC50 [1] [µM] | Activity (Homo sapiens) | Compound
5.6 | – | Oc1ccc(/C=C/c2cc(O)cc(O)c2)cc1 [RESVERATROL]
10 | – | COc1cc(/C=C/C(=O)CC(=O)/C=C/c2ccc(O)c(OC)c2)ccc1O [CURCUMIN]
– | inactive | O=c1oc2c(O)c(O)cc3c(=O)oc4c(O)c(O)cc1c4c23
4.7 | – | OC[C@H]1O[C@@H](Oc2cc(O)cc(/C=C/c3ccc(O)cc3)c2)[C@H](O)[C@@H](O)[C@@H]1O [PICEID]
